# From publication PMC8016788 (Clinical Pharmacokinetics, 2021)
# Where two headings read alike, the source gives them in different places.
# Experiments:
# [1] = 10 mg
# clinical = settings: human, plasma, oral, 10 mg
# [2] = system: patients with non-diabetic kidney disease; settings: primary result of the DIAMOND trial; cited from earlier work
# [3] = patients with type 2 diabetes and chronic kidney disease; model of van der Walt et al.; cited from earlier work
smiles,measurement,setting,value
CCOc1ccc(Cc2cc([C@@H]3O[C@H](CO)[C@@H](O)[C@H](O)[C@H]3O)ccc2Cl)cc1 [dapagliflozin],Predicted median AUC0–inf,[1]; participants of 50 kg with mGFR 50 mL/min/1.73 m^2,1100.3 (1016.1–1204.1) ng h/mL
same,Predicted median AUC0–inf,[1]; participants of 70 kg with mGFR 15 mL/min/1.73 m^2,1566.1 (1348.4–1855.4) ng h/mL
same,Predicted median AUC0–inf,[1]; participants of 70 kg with mGFR 90 mL/min/1.73 m^2,539.2 (483.5–600.4) ng h/mL
same,Predicted median AUC0–inf,[1]; participants of 150 kg with mGFR 50 mL/min/1.73 m^2,483.0 (445.5–527.8) ng h/mL
same,AUC(0-inf),clinical,741 ng·h/mL
same,Vd/F,clinical,44.9 L
same,Effect on proteinuria in the DIAMOND trial,[2],did not decrease proteinuria
same,Apparent clearance,[3],approximately 10.5 L/h
